Measurements reported in US5721234A, “Glutamate receptor antagonists: fused cycloalkylouinoxalinediones” (Warner-Lambert Company, priority 1995, dated 1998).
Counter-ions that a name gives are not always drawn.

Legend:
[1] = target: kainate site (non-NMDA receptor); assay: Kainate site (non-NMDA receptor) binding affinity (London and Coyle)
[2] = target: T1, glycine site of the NMDA receptor (Rattus norvegicus, UniProt P35439); assay: Glycine site of the NMDA receptor binding affinity (Jones et al.)
T1 construct: from tissue

[3] = target: AMPA receptors; assay: AMPA receptor binding affinity (Honore et al.)
[4] = test system: AMPA-induced neuronal damage in primary cortical neuronal cultures; assay: AMPA-induced neuronal damage in primary cortical neuronal cultures, LDH release; type: cell-based; details: long-term exposure to 100 μM AMPA
Method: To functionally measure AMPA antagonist activity, the effects of the agent on AMPA-induced neuronal damage in primary cortical neuronal cultures was examined using techniques similar to those outlined by Koh, J.-Y. et al., J. Neurosci, 1990; 10:693. The neuronal damage produced by long-term exposure to 100 μM AMPA was measured by the release of the cytosolic enzyme lactate dehydrogenase (LDH).
Selected compounds of the present invention were tested by one or more of the above-described assays. The IC50 values set forth in Tables 1 and 2 are a measure of the concentration (μM) of the test substance which inhibits 50% of an induced release from the tested receptors.

[5] = Table 1, cyclohexyl-fused analogs
[6] = Table 2, cyclopentyl-fused analogs

Row | Structure (SMILES) | IC50 [1, 5] | IC50 [2, 5] | IC50 [3, 5] | IC50 [4, 5] | IC50 [1, 6] | IC50 [2, 6] | IC50 [3, 6] | IC50 [4, 6]
1 | O=c1[nH]c2cc(Br)c3c(c2[nH]c1=O)CC(O)CC3 (stereo not drawn) [Example 7, 6-bromo-9-hydroxy-1,4,7,8,9,10-hexahydro-benzo[f]quinoxaline-2,3-dione] | 3 µM | 1.5 µM | 17 µM |  |  |  |  | 
2 | NC1CCc2c([N+](=O)[O-])cc3[nH]c(=O)c(=O)[nH]c3c2C1 (stereo not drawn) [Example 15, 9-amino-6-nitro-1,4,7,8,9,10-hexahydro-benzo[f]quinoxaline-2,3-dione] | 2.8 µM | 1.8 µM | 0.7 µM | 20 µM |  |  |  | 
3 | CC(=O)NC1CCc2c([N+](=O)[O-])cc3[nH]c(=O)c(=O)[nH]c3c2C1 (stereo not drawn) [Example 17, N-(6-nitro-2,3-dioxo-1,2,3,4,7,8,9,10-octahydro-benzo[f]quinoxalin-9-yl)-acetamide] | 2.2 µM | 0.62 µM | 0.56 µM | > 30 µM |  |  |  | 
4 | O=c1[nH]c2cc(Br)c3c(c2[nH]c1=O)CC(NCc1ccccc1)CC3 (stereo not drawn) [Example 19, 9-benzylamino-6-bromo-1,4,7,8,9,10-hexahydro-benzo[f]quinoxaline-2,3-dione] | > 100 µM | > 100 µM | 25 µM |  |  |  |  | 
5 | CC(=O)NC1Cc2c([N+](=O)[O-])cc3[nH]c(=O)c(=O)[nH]c3c2C1 (stereo not drawn) [Example 32, N-(6-nitro-2,3-dioxo-2,3,4,7,8,9-hexahydro-1H-cyclopenta[f]quinoxalin-8-yl)-acetamide] |  |  |  |  | 0.9 µM | 1.3 µM | 0.4 µM | 
6 | O=C(NC1Cc2c([N+](=O)[O-])cc3[nH]c(=O)c(=O)[nH]c3c2C1)C1CCNCC1 (stereo not drawn) [Example 35, 4-(6-nitro-2,3-dioxo-2,3,4,7,8,9-hexahydro-1H-cyclopenta[f]quinoxalin-8-ylcarbamoyl)piperidine hydrochloride] |  |  |  |  | 0.28 µM | < 1 µM | 0.12 µM | 
7 | O=C(NC1CCc2c([N+](=O)[O-])cc3[nH]c(=O)c(=O)[nH]c3c2C1)c1ccccc1 (stereo not drawn) [Example 36, N-(6-nitro-2,3-dioxo-1,2,3,4,7,8,9,10-octahydrobenzo[f]quinoxalin-9-yl)-benzamide] | 0.9 µM | 0.09 µM | 0.42 µM | 30 µM |  |  |  | 
8 | O=C(NC1CCc2c([N+](=O)[O-])cc3[nH]c(=O)c(=O)[nH]c3c2C1)C1CCCCC1 (stereo not drawn) [Example 37, N-(6-nitro-2,3-dioxo-1,2,3,4,7,8,9,10-octahydrobenzo[f]quinoxalin9-yl)cyclohexylamide] |  | 0.5 µM |  | 28 µM |  |  |  | 
9 | O=C(NC1Cc2c([N+](=O)[O-])cc3[nH]c(=O)c(=O)[nH]c3c2C1)c1ccccc1 (stereo not drawn) [Example 39, N-(6-nitro-2,3-dioxo-4,7,8,9-tetrahydro-1H-cyclopenta[f]quinoxalin-8-yl)-benzamide] |  |  |  |  | 0.48 µM | 0.4 µM | 0.11 µM | 18 µM
10 | O=C(NC1CCc2c([N+](=O)[O-])cc3[nH]c(=O)c(=O)[nH]c3c2C1)C1CCNCC1 (stereo not drawn) [Example 40, 4-(6-nitro-2,3-dioxo-1,2,3,4,7,8,9,10-octahydrobenzo[f]quinoxaline-9-ylcarbamoyl)-piperidine hydrochloride] | 0.82 µM | 0.28 µM | 0.27 µM | 25 µM |  |  |  | 
11 | O=C(CCc1ccc(O)cc1)NC1CCc2c([N+](=O)[O-])cc3[nH]c(=O)c(=O)[nH]c3c2C1 (stereo not drawn) [Example 41, 2-(6-nitro-2,3-dioxo-1,2,3,4,7,8,9,10-octahydrobenzo[f]quinoxaline-9-ylcarbamoyl)ethyl-(4-hydroxy)benzene] |  | > 1 µM |  |  |  |  |  | 
12 | O=C(Nc1ccccc1)NC1CCc2c([N+](=O)[O-])cc3[nH]c(=O)c(=O)[nH]c3c2C1 (stereo not drawn) [Example 42, N-phenyl-N'-(6-nitro-2,3-dioxo-1,2,3,4,7,8,9,10-octahydrobenzo[f]quinoxalin-9-yl)urea] | 0.83 µM | 0.18 µM | 0.15 µM |  |  |  |  | 
13 | CNC1CCc2c([N+](=O)[O-])cc3[nH]c(=O)c(=O)[nH]c3c2C1 (stereo not drawn) [Example 52, 9-Methylamino-6-nitro-1,4,7,8,9,10-hexahydrobenzo[f]quinoxaline-2,3-dione] | 2.8 µM | > 1 µM | 0.79 µM |  |  |  |  | 
14 | O=C(NC1Cc2c([N+](=O)[O-])cc3[nH]c(=O)c(=O)[nH]c3c2C1)c1cccs1 (stereo not drawn) [Example 54, Thiophene-2-carboxylic acid (6-nitro-2,3-dioxo-2,3,4,7,8,9-hexahydro-1H-cyclopenta[f]quinoxaline-8-yl)-amide] |  |  |  |  | 0.18 µM | 0.3 µM | 0.05 µM | 
15 | O=C(NC1Cc2c([N+](=O)[O-])cc3[nH]c(=O)c(=O)[nH]c3c2C1)c1ccoc1 (stereo not drawn) [Example 59, Furan-3-carboxylic acid (6-nitro-2,3-dioxo-2,3,4,7,8,9-hexahydro-1H-cyclopenta[f]quinoxalin-8-yl)-amide] |  |  |  |  | 0.38 µM | > 1 µM | 0.14 µM | 14 µM
16 | O=C(NC1Cc2c([N+](=O)[O-])cc3[nH]c(=O)c(=O)[nH]c3c2C1)c1ccsc1 (stereo not drawn) [Example 60, Thiophene-3-carboxylic acid (6-nitro-2,3-dioxo-2,3,4,7,8,9-hexahydro-1H-cyclopenta[f]quinoxalin-8-yl)amide] |  |  |  |  | 0.36 µM | 0.4 µM | 0.1 µM | 14 µM
17 | O=C(NC1Cc2c([N+](=O)[O-])cc3[nH]c(=O)c(=O)[nH]c3c2C1)c1cccnc1 (stereo not drawn) [Example 61, N-(6-Nitro-2,3-dioxo-2,3,4,7,8,9-hexahydro-1H-cyclopenta[f]quinoxalin-8-yl)-nicotinamide] |  |  |  |  | 1.03 µM | > 1 µM | 0.2 µM | 28 µM
18 | O=C(NC1Cc2c([N+](=O)[O-])cc3[nH]c(=O)c(=O)[nH]c3c2C1)c1ccccn1 (stereo not drawn) [Example 62, Pyridine-2-carboxylic acid (6-nitro-2,3-dioxo-2,3,4,7,8,9-hexahydro-1H-cyclopenta[f]quinoxalin-8-yl)-amide] |  |  |  |  | 1.9 µM | > 1 µM | 0.56 µM | 
19 | O=C(NC1Cc2c([N+](=O)[O-])cc3[nH]c(=O)c(=O)[nH]c3c2C1)C1(O)OC(O)C(O)C1O (stereo not drawn) [Example 63, 2,3,4,5-Tetrahydroxy-tetrahydro-furan-2-carboxylic acid (6-nitro-2,3-dioxo-2,3,4,7,8,9-hexahydro-1H-cyclopenta[f]quinoxalin-8-yl)-amide] |  |  |  |  | 1.1 µM | > 1 µM | 0.58 µM | > 30 µM
20 | O=C(NC1Cc2c([N+](=O)[O-])cc3[nH]c(=O)c(=O)[nH]c3c2C1)C1CCCN1 (stereo not drawn) [Example 64, Pyrrolidine-2-carboxylic acid (6-nitro-2,3-dioxo-2,3,4,7,8,9-hexahydro-1H-cyclopenta[f]quinoxalin-8-yl)-amide] |  |  |  |  | 0.86 µM | > 1 µM | 0.64 µM | 
21 | CN(C(=O)C1Cc2c([N+](=O)[O-])cc3[nH]c(=O)c(=O)[nH]c3c2C1)c1ccccc1 (stereo not drawn) [Example 69, 6-Nitro-2,3-dioxo-2,3,4,7,8,9-hexahydro-1H-cyclopenta[f]quinoxaline-8-carboxylic acid methyl-phenyl-amide] |  |  |  |  | 1.6 µM | > 100 µM | 0.42 µM | 
22 | O=C(O)C1Cc2c([N+](=O)[O-])cc3[nH]c(=O)c(=O)[nH]c3c2C1 (stereo not drawn) [Example 78, 6-Nitro-2,3,-dioxo-2,3,4,7,8,9-hexahydro-1H-cyclopenta[f]quinoxaline-8-carboxylic acid] |  |  |  |  | 1.9 µM | 14 µM | 0.42 µM | 
23 | CN(C)C1Cc2c([N+](=O)[O-])cc3[nH]c(=O)c(=O)[nH]c3c2C1 (stereo not drawn) [Example 90, 8-Dimethylamino-6-nitro-4,7,8,9-tetrahydro-1H-cyclopenta[f]quinoxaline-2,3-dione] |  |  |  |  | 2.6 µM | 12 µM | 0.91 µM | 
24 | CC(=O)N(C)C1Cc2c([N+](=O)[O-])cc3[nH]c(=O)c(=O)[nH]c3c2C1 (stereo not drawn) [Example 105, N-Methyl-N-(6-nitro-2,3,-dioxo-2,3,4,7,8,9-hexahydro-1H-cyclopenta[f]quinoxaline-8-yl)acetamide] |  |  |  |  | 2.2 µM |  | 2.2 µM | 
25 | O=c1[nH]c2cc([N+](=O)[O-])c3c(c2[nH]c1=O)CC(N1CCCCC1)C3 (stereo not drawn) [Example 108, 6-Nitro-8-piperidin-1-yl-4,7,8,9-tetrahydro-1H-cyclopenta[f]quinoxaline-2,3-dione] |  |  |  |  | 1.6 µM |  | 3.4 µM | 
26 | CCN(CC)C1Cc2c([N+](=O)[O-])cc3[nH]c(=O)c(=O)[nH]c3c2C1 (stereo not drawn) [Example 109, 8-Diethylamino-6-nitro-4,7,8,9,-tetrahydro-1H-cyclopenta[f]quinoxaline-2,3-dione] |  |  |  |  | 5.4 µM |  | 5.1 µM | 
